Data on 1 compound can be found in patent US20260053765A1, “COMPOSITIONS AND METHODS FOR THE IMPROVEMENT OF MEMORY” (THE CHILDREN'S HOSPITAL OF PHILADELPHIA, priority 2016, published 2026).

The conditions of series [1]: within one hour of administration; cited from earlier work.
Series [2] relates to fluid percussion injury mice. As to the kind of experiment: Conditioned fear response (CFR) after fluid percussion injury, GTA by oral gavage. Type of series: in vivo, mouse. Conditions: 5 mg/kg GTA oral gavage for 5 days, CFR on day 7. On the procedure: A fluid percussion injury assay was performed. Briefly, a craniotomy was performed on anesthetized mice using a 3 mm trephine and a Luer-Hoc needle hub attached to the skull and capped. The following day, a fluid percussion injury device was employed to deliver a pulse of saline through the hub at a pressure between 1.4-2.14 atm, producing a mild to moderate percussion injury. Sham animals received all anesthesia and surgical procedures except for the fluid pulse.
Mice were allowed to recover for one day. Mice were then treated with 5 mg/kg of glyceryl triacetate (GTA) via oral gavage for 5 days. The conditioned fear response (CFR) assay was performed on day 7.

`CC(=O)OCC(COC(C)=O)OC(C)=O` [GTA, glyceryl triacetate]: the “increase of acetate levels in the brain” value in series [1] was “over 15 fold”. Further, the “conditioned fear response (freezing)” value in series [2] was “showed a similar fear response to sham animals and a statistically superior (P<0.05) response to those mice receiving the brain injury without treatment”.
